Measurements published in patent US12612409B2, “Pyrrolopyrimidines as CFTR potentiators” (Cystic Fibrosis Foundation, priority 2016, dated 2026).

How the values were obtained:
[1] = molecular target: T1, CFTR in F508del/F508del primary CF hBE cells (Homo sapiens, UniProt P13569, DEL508-508); assay: Ussing chamber electrophysiology assay of CFTR potentiation in F508del/F508del CF bronchial epithelial cells (27° C.); format: cell-based
T1 construct: Primary cystic fibrosis human bronchial epithelial (CF hBE) cells were expanded and cultured; endogenous in cells; host or cells: primary CF human bronchial epithelial cells, genotype F508del/F508del
Description: • SHELXTL, Version 5.1, Bruker AXS, 1997. • PLATON, A. L. Spek, J. Appl. Cryst. 2003, 36, 7-13. • MERCURY, C. F. Macrae, P. R. Edington, P. McCabe, E. Pidcock, G. P. Shields, R. Taylor, M. Towler and J. van de Streek, J. Appl. Cryst. 39, 453-457, 2006. • OLEX2, Dolomanov, O. V.; Bourhis, L. J.; Gildea, R. J.; Howard, J. A. K.; Puschmann, H., (2009). J. Appl. Cryst., 42, 339-341. • R. W. W. Hooft et al. J. Appl. Cryst. (2008). 41. 96-103. • H. D. Flack, Acta Cryst. 1983, A39, 867-881. Using Chamber Electrophysiology Assay of CFTR Potentiation in CF Bronchial Epithelial Cells
Primary cystic fibrosis human bronchial epithelial (CF hBE) cells were expanded and cultured according to published methods (Neuberger et al., Ch. 4 of Cystic Fibrosis, Methods in Molecular Biology vol. 741, pp. 39-54 (2011)). Well-differentiated cells (>30 days at air/liquid interface) on Snapwell filters (Corning Costar, cat. no. 3801) were mounted in Ussing chambers (Physiologic Instruments, Inc., San Diego, CA). […] HEPES buffered physiological saline (composition (in mM): 137 NaCl, 4 KCl, 1 MgCl2, 1.8 CaCl2), 10 HEPES Na) was used in both apical and basolateral chambers. Chambers were bubbled with air to promote mixing and the voltage was clamped to zero. Amiloride (30 uM), forskolin (10 uM), test compound (4 increasing concentrations), and CFTRinh-172 (20 uM) were added sequentially with 20-25 minutes between additions. Short-circuit currents were acquired and analyzed using LabScribe2. Test compound responses were scaled relative to responses for DMSO (0%) and the maximal response of a positive control potentiator (100%).

[2] = molecular target: T2, recombinant F508del V470 CFTR in Fischer rat thyroid (FRT) cells (Homo sapiens, UniProt P13569, DEL508-508); assay: FRT ion flux assay of F508del CFTR potentiation; format: cell-based; conditions: FRT cells expressing F508del V470 CFTR, forskolin 20 uM, 27° C. pre-incubation
T2 construct: expressed in transfected cells
Summary of the method: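 FRT cells co-expressing F508del V470 CFTR and halide-sensitive YFP, temperature-corrected at 27° C for 16-24 h, then treated 30 min with compound plus 20 uM forskolin. Iodide addition quenches YFP, read after ~21 s; ratio scaled to DMSO (0%) and positive control potentiator (100%).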

T2 sequence (P13569 with tags, fused parts or gaps DEL508-508): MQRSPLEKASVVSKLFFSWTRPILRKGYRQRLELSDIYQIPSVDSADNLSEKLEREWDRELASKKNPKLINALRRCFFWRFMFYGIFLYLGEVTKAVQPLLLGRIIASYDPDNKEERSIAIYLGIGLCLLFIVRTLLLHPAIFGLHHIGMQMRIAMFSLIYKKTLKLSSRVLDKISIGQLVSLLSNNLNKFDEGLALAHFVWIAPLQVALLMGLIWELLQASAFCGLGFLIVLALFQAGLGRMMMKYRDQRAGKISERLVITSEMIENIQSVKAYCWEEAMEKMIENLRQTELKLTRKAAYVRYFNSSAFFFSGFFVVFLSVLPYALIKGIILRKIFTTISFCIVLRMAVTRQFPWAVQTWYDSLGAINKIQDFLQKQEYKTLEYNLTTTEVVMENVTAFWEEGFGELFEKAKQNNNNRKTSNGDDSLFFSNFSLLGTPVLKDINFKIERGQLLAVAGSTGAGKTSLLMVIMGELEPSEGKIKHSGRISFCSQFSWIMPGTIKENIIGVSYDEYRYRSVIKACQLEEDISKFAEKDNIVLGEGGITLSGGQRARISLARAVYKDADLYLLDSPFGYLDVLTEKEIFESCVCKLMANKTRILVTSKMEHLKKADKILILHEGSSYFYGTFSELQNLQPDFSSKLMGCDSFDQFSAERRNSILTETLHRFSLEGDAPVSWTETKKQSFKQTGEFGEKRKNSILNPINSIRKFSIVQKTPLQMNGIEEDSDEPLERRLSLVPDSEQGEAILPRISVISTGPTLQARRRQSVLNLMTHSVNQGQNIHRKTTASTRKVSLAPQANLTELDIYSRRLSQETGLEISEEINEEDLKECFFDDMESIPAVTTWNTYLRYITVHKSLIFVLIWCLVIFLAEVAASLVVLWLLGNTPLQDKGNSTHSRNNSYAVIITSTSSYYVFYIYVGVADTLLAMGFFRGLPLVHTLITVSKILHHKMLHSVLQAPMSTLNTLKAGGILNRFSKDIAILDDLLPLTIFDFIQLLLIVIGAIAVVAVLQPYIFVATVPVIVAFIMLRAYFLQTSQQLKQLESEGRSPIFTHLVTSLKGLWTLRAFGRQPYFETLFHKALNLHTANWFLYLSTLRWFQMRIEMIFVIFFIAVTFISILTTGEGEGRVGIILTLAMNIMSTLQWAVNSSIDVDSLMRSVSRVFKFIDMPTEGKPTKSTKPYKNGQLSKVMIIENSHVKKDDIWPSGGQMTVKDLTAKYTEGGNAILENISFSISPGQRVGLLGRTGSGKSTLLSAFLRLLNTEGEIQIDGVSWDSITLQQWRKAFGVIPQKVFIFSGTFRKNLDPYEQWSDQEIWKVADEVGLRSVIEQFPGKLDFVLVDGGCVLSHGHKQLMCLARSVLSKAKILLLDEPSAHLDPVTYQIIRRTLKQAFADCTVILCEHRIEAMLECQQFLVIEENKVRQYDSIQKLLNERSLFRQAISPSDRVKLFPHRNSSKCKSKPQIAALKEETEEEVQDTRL
T1 sequence (P13569 with tags, fused parts or gaps DEL508-508): as above

| EC50 [1] | EC50 [2] | SMILES |
| --- | --- | --- |
| 17.5 nM | 68.6 nM | CC(c1cn(-c2ccccc2F)nn1)n1cc(-c2ccc(Cl)cc2)c2c(N)ncnc21 (single isomer, unassigned) [Example 112] |
| 818 nM | 826 nM | COc1ncccc1-c1cn(C(C)c2cn(-c3ccccc3F)nn2)c2ncnc(N)c12 (single isomer, unassigned) [Example 113, 7-{1-[1-(2-Fluorophenyl)-1H-1,2,3-triazol-4-yl]ethyl}-5-(2-methoxypyridin-3-yl)-7H-pyrrolo[2,3-d]pyrimidin-4-amine] |
| 14.4 nM | 34.7 nM | CCC(c1cn(-c2cc(F)ccc2F)nn1)n1cc(-c2cnc(C(F)(F)F)nc2)c2c(N)ncnc21 (single isomer, unassigned) [Example 185, 7-{1-[1-(2,5-difluorophenyl)-1H-1,2,3-triazol-4-yl]propyl}-5-[2-(trifluoromethyl)pyrimidin-5-yl]-7H-pyrrolo[2,3-d]pyrimidin-4-amine] |
| 297 nM | 631 nM | CCC(c1cn(-c2cc(F)ccc2F)nn1)n1cc(-c2cnc(C(F)(F)F)nc2)c2c(N)ncnc21 (single isomer, unassigned) [Example 186, 7-{1-[1-(2,5-difluorophenyl)-1H-1,2,3-triazol-4-yl]propyl}-5-[2-(trifluoromethyl)pyrimidin-5-yl]-7H-pyrrolo[2,3-d]pyrimidin-4-amine] |
| 13 nM | 13.2 nM | CCC(c1cn(-c2cccc(F)c2F)nn1)n1cc(-c2cnc(C(F)(F)F)nc2)c2c(N)ncnc21 (single isomer, unassigned) [Example 187, 7-{1-[1-(2,3-Difluorophenyl)-1H-1,2,3-triazol-4-yl]propyl}-5-[2-(trifluoromethyl)pyrimidin-5-yl]-7H-pyrrolo[2,3-d]pyrimidin-4-amine] |
| 243 nM | 551 nM | CCC(c1cn(-c2cccc(F)c2F)nn1)n1cc(-c2cnc(C(F)(F)F)nc2)c2c(N)ncnc21 (single isomer, unassigned) [Example 188, 7-{1-[1-(2,3-Difluorophenyl)-1H-1,2,3-triazol-4-yl]propyl}-5-[2-(trifluoromethyl)pyrimidin-5-yl]-7H-pyrrolo[2,3-d]pyrimidin-4-amine] |
| 10.2 nM | 6.72 nM | CCC(c1nnn(-c2ccc(F)cc2F)c1C)n1cc(-c2cnc(C(F)(F)F)nc2)c2c(N)ncnc21 (single isomer, unassigned) [Example 189] |
| 32.6 nM | 49.7 nM | COc1ncc(-c2cn(C(C)c3cc(-c4ccccc4F)no3)c3ncnc(N)c23)cn1 (single isomer, unassigned; (+)) [Example 184, (+) 7-{1-[3-(2-fluorophenyl)-1,2-oxazol-5-yl]ethyl}-5-(2-methoxypyrimidin-5-yl)-7H-pyrrolo[2,3-d]pyrimidin-4-amine] |
| 1640 nM | 2740 nM | CCC(c1cn(-c2ccccc2F)nn1)n1cc(-c2cncnc2OC)c2c(N)nc(C)nc21 (single isomer, unassigned; (+)) [Example 303, (+) 7-{1-[1-(2-Fluorophenyl)-1H-1,2,3-triazol-4-yl]propyl}-5-(4-methoxypyrimidin-5-yl)-2-methyl-7H-pyrrolo[2,3-d]pyrimidin-4-amine] |
| 305 nM | 509 nM | COc1ncc(-c2cn(C(C)c3cc(-c4ccccc4F)no3)c3ncnc(N)c23)cn1 (single isomer, unassigned; (-)) [Example 183, (−) 7-{1-[3-(2-fluorophenyl)-1,2-oxazol-5-yl]ethyl}-5-(2-methoxypyrimidin-5-yl)-7H-pyrrolo[2,3-d]pyrimidin-4-amine] |
| 614 nM | 566 nM | CC(c1cn(-c2ccccc2F)nn1)n1cc(-c2ccc(C#N)c(F)c2)c2c(N)ncnc21 (single isomer, unassigned; enantiomer 1) [Example 115, 4-(4-Amino-7-{1-[1-(2-fluorophenyl)-1H-1,2,3-triazol-4-yl]ethyl}-7H-pyrrolo[2,3-d]pyrimidin-5-yl)-2-fluorobenzonitrile, enantiomer 1] |
| 49.3 nM | 58.8 nM | CC(c1cn(-c2ccccc2F)nn1)n1cc(-c2ccc(OC3CC3)cc2)c2c(N)ncnc21 (single isomer, unassigned; enantiomer 1) [Example 117, (+) 5-[4-(Cyclopropyloxy)phenyl]-7-{1-[1-(2-fluorophenyl)-1H-1,2,3-triazol-4-yl]ethyl}-7H-pyrrolo[2,3-d]pyrimidin-4-amine, enantiomer 1] |
| 187 nM | 677 nM | CC(c1cn(-c2ccccc2F)nn1)n1cc(-c2ccc(OC3CC3)nc2)c2c(N)ncnc21 (single isomer, unassigned; enantiomer 1) [Example 119, (−) 5-[6-(Cyclopropyloxy)pyridin-3-yl]-7-{1-[1-(2-fluorophenyl)-1H-1,2,3-triazol-4-yl]ethyl}-7H-pyrrolo[2,3-d]pyrimidin-4-amine, enantiomer 1] |
| 89.2 nM | 30 nM | CC(c1cn(-c2ccccc2F)nn1)n1cc(-c2cc[nH]n2)c2c(N)ncnc21 (single isomer, unassigned; enantiomer 1) [Example 121, 7-{1-[1-(2-Fluorophenyl)-1H-1,2,3-triazol-4-yl]ethyl}-5-(1H-pyrazol-3-yl)-7H-pyrrolo[2,3-d]pyrimidin-4-amine, enantiomer 1] |
| 50.5 nM | 21.6 nM | CC(c1cn(-c2ccc(F)cc2F)nn1)n1cc(-c2cnc(C(F)(F)F)nc2)c2c(N)ncnc21 (single isomer, unassigned; enantiomer 1) [Example 123, 7-{1-[1-(2,4-Difluorophenyl)-1H-1,2,3-triazol-4-yl]ethyl}-5-[2-(trifluoromethyl)pyrimidin-5-yl]-7H-pyrrolo[2,3-d]pyrimidin-4-amine, enantiomer 1] |
| 199 nM | 395 nM | CCC(c1cn(-c2ccccc2)nn1)n1cc(-c2ccc(OC)nc2)c2c(N)ncnc21 (single isomer, unassigned; enantiomer 1) [Example 125, 5-(6-Methoxypyridin-3-yl)-7-[1-(1-phenyl-1H-1,2,3-triazol-4-yl)propyl]-7H-pyrrolo[2,3-d]pyrimidin-4-amine, enantiomer 1] |
| 448 nM | 408 nM | CCC(c1cn(-c2ccccc2)nn1)n1cc(-c2cncnc2OC)c2c(N)ncnc21 (single isomer, unassigned; enantiomer 1) [Example 127, (−) 5-(4-Methoxypyrimidin-5-yl)-7-[1-(1-phenyl-1H-1,2,3-triazol-4-yl)propyl]-7H-pyrrolo[2,3-d]pyrimidin-4-amine, enantiomer 1] |
| 10.7 nM | 8.46 nM | CCC(c1cn(-c2ccccc2)nn1)n1cc(-c2cnc(C(F)(F)F)nc2)c2c(N)ncnc21 (single isomer, unassigned; enantiomer 1) [Example 129, 7-[1-(1-Phenyl-1H-1,2,3-triazol-4-yl)propyl]-5-[2-(trifluoromethyl)pyrimidin-5-yl]-7H-pyrrolo[2,3-d]pyrimidin-4-amine, enantiomer 1] |
| 282 nM | 623 nM | CCC(c1cn(-c2ccccc2F)nn1)n1cc(-c2ccc(Cl)cc2)c2c(N)ncnc21 (single isomer, unassigned; enantiomer 1) [Example 131, 5-(4-Chlorophenyl)-7-{1-[1-(2-fluorophenyl)-1H-1,2,3-triazol-4-yl]propyl}-7H-pyrrolo[2,3-d]pyrimidin-4-amine, enantiomer 1] |
| 721 nM | 918 nM | CCC(c1cn(-c2ccccc2F)nn1)n1cc(-c2cncnc2OC)c2c(N)ncnc21 (single isomer, unassigned; enantiomer 1) [Example 133, (−) 7-{1-[1-(2-Fluorophenyl)-1H-1,2,3-triazol-4-yl]propyl}-5-(4-methoxypyrimidin-5-yl)-7H-pyrrolo[2,3-d]pyrimidin-4-amine, enantiomer 1] |
| 65.2 nM | 203 nM | CCC(c1cn(-c2ccccc2F)nn1)n1cc(-c2nccnc2OC)c2c(N)ncnc21 (single isomer, unassigned; enantiomer 1) [Example 135, (−) 7-{1-[1-(2-Fluorophenyl)-1H-1,2,3-triazol-4-yl]propyl}-5-(3-methoxypyrazin-2-yl)-7H-pyrrolo[2,3-d]pyrimidin-4-amine, enantiomer 1] |
